# According to ChEMBL document CHEMBL4414576, “Recent advancements in mechanistic studies and structure activity relationship of FoF1 ATP synthase inhibitor as antimicrobial agent” (Eur J Med Chem, 2019):
# Test system: Mycobacterium tuberculosis variant bovis
# Experiment: Antimicrobial activity against Mycobacterium bovis after 1 to 5 days by two-fold dilution
# Type: functional, organism-based
smiles,measurement,value
FC(F)(F)Oc1cccc(CNCCNC2C3CC4CC(C3)C2C4)c1 (stereo unspecified),IC50,1.25 µM
